Measured values taken from patent US20230322745A1, “FUSED TRICYCLIC DERIVATIVE AND PHARMACEUTICAL APPLICATION THEREOF” (CHIA TAI TIANQING PHARMACEUTICAL GROUP CO., LTD., priority 2020, published 2023).
Structures can show the parent of a compound that is named as a salt. Where two headings read alike, the source gives them in different places.

Experiments:
M2 receptor = M2 receptor (Homo sapiens (Human), UniProt P08172); assay: M2 receptor affinity test (3H-NMS competition); type: binding
Experimental: M2 receptor is a G protein-coupled receptor. In this experiment, the activity of test compounds against the M2 receptor in vitro was assayed by the competition of radioisotope labeled NMS and non-isotope labeled test compounds for an M2 binding site.
(§1) The M2 receptor membrane protein was prepared at 100 μg/mL by Biology Department of WuXi AppTec, and compounds were serially diluted in a 2.5-fold gradient in DMSO to obtain 10 concentrations. Radioisotope 3H-NMS was prepared at 0.2 nM in an assay buffer (10 mM HEPES, 1 mM MgCl2, pH 7.40). In formal testing, the experimental system comprising 1 μL of the test compound, 100 μL of M2 receptor membrane protein and 100 μL of radioisotope was shaken in a shaker at 300 RPM for 2 h at room temperature. A GF/C plate (Perkin Elmer, Cat No. 6055690) was prefoamed with 0.3% PEI, and the membrane proteins in the reaction solution were collected by filtration onto the GF/C plate. The signal values were read by a Perkin Elmer Microbeta2 instrument and the inhibition rate for each concentration point was shown as a percentage.

[1] = target: β2 receptor (cells expressing human ADRB2 gene) (Homo sapiens (Human), UniProt P07550); assay: Agonistic effect on β2 receptor by HTRF cAMP method; type: cell-based
Experimental: (§2) β2 receptor is a G protein-coupled receptor, which is mainly coupled with Gs protein, and can activate adenylate cyclase activity through the Gs protein after being activated by binding to the ligand, thereby increasing the level of intracellular cAMP. In this experiment, the agonistic activity of the compounds against the β2 receptor in vitro was assayed by the cAMP kit.
(§3) β2 cells (expressing human ADRB2 gene) from ICE Bioscience Inc. were grown under standard conditions. The cells were collected and diluted with 1× Stimulation Buffer, and 9 μL of the cell dilution was added to a white low-volume 384-well plate with 1000 cells seeded in each well. Compounds were serially diluted in DMSO in a 5-fold gradient to obtain 10 concentrations. Before testing, compounds that had been serially diluted in DMSO were subjected to 100-fold dilution with 1× Stimulation Buffer to obtain compound working solutions. The concentration of the vehicle DMSO was 0.1%. Eu-cAMP and ULight™-anti-cAMP were diluted to the working concentration with Detection buffer. 5 μL of Eu-cAMP diluent and 5 μL of ULight™-anti-cAMP diluent were sequentially added into corresponding experiment wells. After 1 h of incubation at room temperature, readings at 665 nm and 620 nm were measured under the excitation wavelength of 330 nm using a Biotek microplate reader. The activity of the compounds was obtained by plotting through Ratio (665/620) against the concentration of the compounds, fitting the curve by a nonlinear regression method using GraphPad Prism 7 software and calculating EC50.

[2] = target: β1 receptor (cells expressing human ADRB1 gene) (Homo sapiens (Human), UniProt P08588); assay: Agonistic effect on β1 receptor by HTRF cAMP method; type: cell-based
Experimental: as §2, with “β1” for “β2”
as §3, with “β1” for “β2”, “ADRB1” for “ADRB2”, “4000” for “1000”

M3 receptor = M3 receptor (Homo sapiens (Human), UniProt P20309); assay: M3 receptor affinity test (3H-NMS competition); type: binding
Experimental: M3 receptor is a G protein-coupled receptor. In this experiment, the activity of test compounds against the M3 receptor in vitro was assayed by the competition of radioisotope labeled NMS and non-isotope labeled test compounds for an M3 binding site.
as §1, with “The experiment was performed by a radioisotope affinity assay. The M3” for “The M2”, “at 10” for “at 100”, “1” for “1 μL”, “of M3” for “of M2”

[3] = Pharmacokinetic evaluation in SD rats; type: in vivo; conditions: male, rat, plasma; for clearance / AUC / half-life: 10% aqueous HPβCD; for clearance: read-out: Clearance rate for administration by intravenous injection; for bioavailability: intra-tracheal 5 mpk vs intravenous 2 mpk, read-out: Bioavailability F for intra-tracheal administration with a nebulizer needle; for half-life: read-out: Half life T1/2 for intra-tracheal administration with a nebulizer needle (converted)
Experimental: To test pharmacokinetics of test compounds in SD rats
SD rats (male, 200-250 g, 7-9 weeks old, Beijing Vital River Laboratory Animal Technology Co., Ltd.)
A formulation containing 10% aqueous HPβCD solution as a vehicle was administered by intravenous injection (2 mpk), and a formulation containing 10% aqueous HPβCD solution as a vehicle was administered by intra-tracheal administration (5 mpk) with a nebulizer needle. Before the animal experiment, all animals were fed normally; and all animals were given free access to water. Blood collection time points were as follows: intravenous administration group: 0.083 h, 0.25 h, 0.5 h, 1 h, 2 h, 4 h, 8 h, and 24 h; nebulizer needle administration group: 0.083 h, 0.25 h, 0.5 h, 1 h, 2 h, 4 h, 8 h, and 24 h.
Whole blood samples (0.25 mL) were collected via the jugular vein (or other suitable collection site) at prescribed time points, and all blood samples were added to labeled plastic centrifuge tubes containing a K2-EDTA anticoagulant. After blood collection, plasma was separated by centrifugation and placed in dry ice rapidly, and the samples were stored at low temperature. All samples were analyzed by LC-MS/MS with a limit of detection of 4 nM. The mean concentration of plasma was processed using a non-compartmental model of the pharmacokinetic software WinNonlin™ Version 6.3 (Pharsight, Mountain View, CA), and pharmacokinetic parameters were calculated by a linear log-trapezoidal method.

[4] = HTRF cAMP, 1 h incubation at room temperature, read-out: EC50, agonistic activity against the β2 receptor in vitro
[5] = read-out: IC50, activity against the M3 receptor in vitro
[6] = 2 mg/kg, intravenous injection 2 mpk
[7] = 2 mg/kg, intravenous injection 2 mpk, read-out: Concentration integration AUC for administration by intravenous injection
[8] = inhaled or intranasal, 5 mg/kg, intra-tracheal 5 mpk, read-out: Concentration integration AUC for intra-tracheal administration with a nebulizer needle
[9] = inhaled or intranasal, 5 mg/kg, intra-tracheal 5 mpk

Sequence of β1 receptor (cells expressing human ADRB1 gene) (P08588 whole entry): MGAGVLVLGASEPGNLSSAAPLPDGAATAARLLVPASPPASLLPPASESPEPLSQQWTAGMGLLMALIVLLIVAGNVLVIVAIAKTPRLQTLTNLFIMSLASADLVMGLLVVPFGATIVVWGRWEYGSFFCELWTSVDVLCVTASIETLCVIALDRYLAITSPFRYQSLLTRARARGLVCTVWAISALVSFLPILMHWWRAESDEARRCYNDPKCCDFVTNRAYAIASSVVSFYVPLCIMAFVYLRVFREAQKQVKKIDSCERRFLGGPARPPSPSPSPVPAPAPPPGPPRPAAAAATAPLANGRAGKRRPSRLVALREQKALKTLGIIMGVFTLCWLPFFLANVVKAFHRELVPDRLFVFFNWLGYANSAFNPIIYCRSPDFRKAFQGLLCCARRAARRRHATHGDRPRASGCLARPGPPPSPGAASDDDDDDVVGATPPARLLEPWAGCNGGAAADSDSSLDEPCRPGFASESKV
Sequence of M3 receptor (P20309 whole entry): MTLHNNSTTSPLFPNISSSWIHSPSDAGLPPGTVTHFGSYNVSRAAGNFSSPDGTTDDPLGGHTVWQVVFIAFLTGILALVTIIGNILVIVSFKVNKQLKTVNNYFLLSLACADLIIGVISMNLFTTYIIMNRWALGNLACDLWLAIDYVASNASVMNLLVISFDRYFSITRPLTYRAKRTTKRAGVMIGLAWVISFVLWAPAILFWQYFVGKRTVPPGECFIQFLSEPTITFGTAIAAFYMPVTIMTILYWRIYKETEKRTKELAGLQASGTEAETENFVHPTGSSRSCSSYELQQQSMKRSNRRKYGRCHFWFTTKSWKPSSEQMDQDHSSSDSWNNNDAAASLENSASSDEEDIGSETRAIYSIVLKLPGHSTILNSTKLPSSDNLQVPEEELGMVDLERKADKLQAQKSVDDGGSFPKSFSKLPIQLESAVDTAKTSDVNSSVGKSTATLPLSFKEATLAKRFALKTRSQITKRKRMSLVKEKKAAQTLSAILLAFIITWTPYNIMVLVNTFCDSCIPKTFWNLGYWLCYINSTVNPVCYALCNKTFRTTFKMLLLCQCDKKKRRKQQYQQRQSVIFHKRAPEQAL
Sequence of M2 receptor (P08172 whole entry): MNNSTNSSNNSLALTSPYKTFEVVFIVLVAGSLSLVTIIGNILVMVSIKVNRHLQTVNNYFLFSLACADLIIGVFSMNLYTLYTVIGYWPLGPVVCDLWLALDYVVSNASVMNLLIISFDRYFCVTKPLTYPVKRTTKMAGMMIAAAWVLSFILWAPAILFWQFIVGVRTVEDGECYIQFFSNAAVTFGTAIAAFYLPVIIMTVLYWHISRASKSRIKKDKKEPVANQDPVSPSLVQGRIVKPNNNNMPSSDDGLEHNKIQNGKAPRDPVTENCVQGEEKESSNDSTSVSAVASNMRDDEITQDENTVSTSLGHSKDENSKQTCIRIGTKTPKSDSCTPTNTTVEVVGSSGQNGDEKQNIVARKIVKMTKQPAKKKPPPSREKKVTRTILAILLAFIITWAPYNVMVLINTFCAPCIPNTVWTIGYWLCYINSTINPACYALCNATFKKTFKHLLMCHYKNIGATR
Sequence of β2 receptor (cells expressing human ADRB2 gene) (P07550 whole entry): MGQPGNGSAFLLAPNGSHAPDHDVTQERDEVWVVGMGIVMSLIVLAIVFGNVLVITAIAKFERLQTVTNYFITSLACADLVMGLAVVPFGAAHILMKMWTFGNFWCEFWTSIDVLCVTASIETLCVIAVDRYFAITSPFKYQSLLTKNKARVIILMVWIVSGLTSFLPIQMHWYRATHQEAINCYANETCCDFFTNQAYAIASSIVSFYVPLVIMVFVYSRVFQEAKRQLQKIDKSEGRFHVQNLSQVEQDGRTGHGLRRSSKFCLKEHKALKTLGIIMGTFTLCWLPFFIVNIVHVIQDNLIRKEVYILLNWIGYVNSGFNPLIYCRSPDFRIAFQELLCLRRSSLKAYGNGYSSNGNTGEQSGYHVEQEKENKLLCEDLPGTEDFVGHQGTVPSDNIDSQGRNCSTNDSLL

Compound | EC50 [2] | EC50 [1, 4] | IC50 (M3 receptor; [5]) | also measured
CN(CCCn1cnc2cc(CNC[C@H](O)c3ccc(O)c4[nH]c(=O)ccc34)c3c(c21)CCC3)[C@H]1CC[C@H](OC(=O)C(O)(c2cccs2)c2cccs2)CC1 [Formate salt of compound 41] | 229 nM | – | – | IC50 (M2 receptor): 0.268 nM; EC50 [1]: 13.8 nM; IC50 (M3 receptor): 0.201 nM
O=C(OC1CC2(C1)CN(CCCn1nnc3cc(CNC[C@H](O)c4ccc(O)c5[nH]c(=O)ccc45)c4c(c31)CCC4)C2)C(O)(c1cccs1)c1cccs1 [Formate salt of compound 2] | 157 nM | 0.889 nM | 0.347 nM | –
CN(CCCn1nnc2cc(CNC[C@H](O)c3ccc(O)c4[nH]c(=O)ccc34)c3c(c21)OCCO3)[C@H]1CC[C@H](OC(=O)C(O)(c2cccs2)c2cccs2)CC1 [Formate salt of compound 12] | 127 nM | 2.04 nM | – | –
CN(CCCn1nnc2cc(CNC[C@H](O)c3ccc(O)c4[nH]c(=O)ccc34)c3c(c21)OCO3)[C@H]1CC[C@H](OC(=O)C(O)(c2cccs2)c2cccs2)CC1 [Formate salt of compound 33] | 53.1 nM | – | – | IC50 (M2 receptor): 0.153 nM; EC50 [1]: 0.742 nM; IC50 (M3 receptor): 0.494 nM
O=C(OCC1(O)CCN(CCCn2nnc3cc(CNC[C@H](O)c4ccc(O)c5[nH]c(=O)ccc45)c4c(c32)CCC4)CC1)C(O)(c1cccs1)c1cccs1 [Formate salt of compound 31] | – | – | 0.655 nM | –
CN(CCCn1nnc2cc(CNC[C@H](O)c3ccc(O)c4[nH]c(=O)ccc34)c3c(c21)CCC3)[C@H]1CC[C@H](OC(=O)C(O)(c2cccs2)c2cccs2)CC1 [Trifluoroacetate salt of compound 1] | 84.5 nM | 3.47 nM | 0.384 nM | IC50 (M2 receptor): 0.062 nM; clearance [3, 6]: 62.8 mL/min/kg; AUC [3, 7]: 0.681 µM·h; bioavailability ([3]; inhaled or intranasal, 5 mg/kg): 153%; AUC [3, 8]: 2.61 µM·h; half-life [3, 9]: 82.8 min
CN(CCCn1nnc2cc(CNC[C@H](O)c3ccc(O)c4[nH]c(=O)ccc34)ccc21)[C@H]1CC[C@H](OC(=O)C(O)(c2cccs2)c2cccs2)CC1 [Hydrofluoride salt of AZD8871, reference compound] | – | – | – | clearance [3, 6]: 35 mL/min/kg; AUC [3, 7]: 1.27 µM·h; bioavailability ([3]; inhaled or intranasal, 5 mg/kg): 76.7%; AUC [3, 8]: 2.44 µM·h; half-life [3, 9]: 30.9 min
Cn1ncc2c(CNC[C@H](O)c3ccc(O)c4[nH]c(=O)ccc34)cc3nnn(CCCN(C)[C@H]4CC[C@H](OC(=O)C(O)(c5cccs5)c5cccs5)CC4)c3c21 [Compound 11] | 33.7 nM | 1.12 nM | 0.638 nM | –
O=C(OC1CCC2(CC1)CN(CCCn1nnc3cc(CNC[C@H](O)c4ccc(O)c5[nH]c(=O)ccc45)c4c(c31)CCC4)C2)C(O)(c1cccs1)c1cccs1 [Formate salt of compound 4] | 304 nM | 2.15 nM | 0.343 nM | –
CN(CCCn1nnc2cc(CNC[C@H](O)c3ccc(O)c4[nH]c(=O)ccc34)c3c(c21)CCC3)[C@H]1CC[C@H](OC(=O)C(O)(c2ccc(Cl)s2)c2ccc(Cl)s2)CC1 [Trifluoroacetate salt of compound 10] | 269 nM | 1.36 nM | 1.27 nM | –
Cc1ccc(C(O)(C(=O)C[C@H]2CC[C@H](N(C)CCCn3nnc4cc(CNC[C@H](O)c5ccc(O)c6[nH]c(=O)ccc56)c5c(c43)CCC5)CC2)c2ccc(C)s2)s1 [Formate salt of compound 32] | – | 1.57 nM | – | IC50 (M2 receptor; 0.2 nM 3H-NMS, M2 receptor membrane protein, 2 h at room temperature, read-out: IC50, activity against the M2 receptor in vitro): 0.814 nM; EC50 ([2]; HTRF cAMP, 1 h incubation at room temperature, read-out: EC50, agonistic activity against the β1 receptor in vitro): 145 nM; IC50 (M3 receptor; 0.2 nM 3H-NMS, M3 receptor membrane protein, 2 h at room temperature, read-out: IC50, activity against the M3 receptor in vitro): 1.2 nM
C[N+]1(CCCn2nnc3cc(CNC[C@H](O)c4ccc(O)c5[nH]c(=O)ccc45)c4c(c32)CCC4)CCC(OC(=O)C(O)(c2cccs2)c2cccs2)CC1 (stereo partly shown) [Hydrobromide salt of compound 30] | 94.9 nM | – | – | –
O=C(OC1CC2(CCN(CCCn3nnc4cc(CNC[C@H](O)c5ccc(O)c6[nH]c(=O)ccc56)c5c(c43)CCC5)CC2)C1)C(O)(c1ccc(Cl)s1)c1ccc(Cl)s1 [Formate salt of compound 19] | 1440 nM | 5.14 nM | 0.281 nM | –
CN(CCCn1nnc2cc(CNC[C@H](O)c3ccc(O)c4[nH]c(=O)ccc34)c3c(c21)COC3)[C@H]1CC[C@H](OC(=O)C(O)(c2cccs2)c2cccs2)CC1 [Formate salt of compound 40] | 56.7 nM | – | – | IC50 (M2 receptor): 0.228 nM; EC50 [1]: 2.8 nM; IC50 (M3 receptor): 0.363 nM
